Values joined by “and” are separate entries in the source; they are usually repeats but may differ in a detail not shown here. Identical values can stand only once. Inconclusive results and toxic doses are left out. Rule as the data show it: active = T/C of 150% or more; inactive = T/C below 125%.
Test system: L1210 leukemia ip in BDF1 mice, survival T/C
Assay: NCI In Vivo Anticancer Drug Screen. Data for tumor model L1210 Leukemia (intraperitoneal) in B6D2F1 (BDF1) mice
Details: endpoint: mean survival time, higher = longer survival
Summary of the method: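 Transplantable tumor model; survival measured in treated vs vehicle control mice. Value = treated/control.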

[1] = dose: 100.0 mg/kg/injection, schedule: Q01DX009 (ip), vehicle: Klucel (hydroxypropylcellulose) (HPC)
[2] = dose: 12.5 mg/kg/injection, schedule: Q01DX009 (ip), vehicle: saline with Tween-80
[3] = dose: 25.0 mg/kg/injection, schedule: Q01DX009 (ip), vehicle: saline with Tween-80
[4] = dose: 50.0 mg/kg/injection, schedule: Q01DX009 (ip), vehicle: saline
[5] = dose: 100.0 mg/kg/injection, schedule: Q01DX009 (ip), vehicle: saline
[6] = dose: 100.0 mg/kg/injection, schedule: Q04DX003 (ip), vehicle: saline
[7] = dose: 200.0 mg/kg/injection, schedule: Q01DX009 (ip), vehicle: saline
[8] = dose: 200.0 mg/kg/injection, schedule: Q04DX003 (ip), vehicle: saline
[9] = dose: 100.0 mg/kg/injection, schedule: Q01DX001 (ip), vehicle: carboxymethylcellulose (CMC)
[10] = dose: 200.0 mg/kg/injection, schedule: Q01DX001 (ip), vehicle: carboxymethylcellulose (CMC)
[11] = dose: 100.0 mg/kg/injection, schedule: Q01DX001 (ip), vehicle: saline
[12] = dose: 200.0 mg/kg/injection, schedule: Q01DX001 (ip), vehicle: saline

Measured: T/C

NCc1cccc(OCCOc2ccccc2)c1
inactive: dose: 100.0 mg/kg/injection, schedule: Q01DX001 (ip), vehicle: saline with Tween-80 102 % of control | dose: 200.0 mg/kg/injection, schedule: Q01DX001 (ip), vehicle: saline with Tween-80 97 % of control | dose: 400.0 mg/kg/injection, schedule: Q01DX001 (ip), vehicle: saline with Tween-80 103 % of control

Cc1nccn1-c1ccc(N=Cc2ccc(N(CCCl)CCCl)cc2Cl)cc1
inactive: dose: 62.5 mg/kg/injection, schedule: Q04DX002 (ip), vehicle: Klucel (hydroxypropylcellulose) (HPC) 102 % of control | dose: 125.0 mg/kg/injection, schedule: Q04DX002 (ip), vehicle: Klucel (hydroxypropylcellulose) (HPC) 98 % of control | dose: 250.0 mg/kg/injection, schedule: Q04DX002 (ip), vehicle: Klucel (hydroxypropylcellulose) (HPC) 106 % of control

O=C(Nc1ccc(Cl)cc1)c1ccccc1Cl
inactive: dose: 100.0 mg/kg/injection, schedule: Q04DX002 (ip), vehicle: Klucel (hydroxypropylcellulose) (HPC) 93 % of control | dose: 200.0 mg/kg/injection, schedule: Q04DX002 (ip), vehicle: Klucel (hydroxypropylcellulose) (HPC) 100 % of control | dose: 400.0 mg/kg/injection, schedule: Q04DX002 (ip), vehicle: Klucel (hydroxypropylcellulose) (HPC) 100 % of control

O=C(O)c1cc([N+](=O)[O-])cc([N+](=O)[O-])c1 (tested in a mixture with another compound)
inactive: dose: 3.13 mg/kg/injection, schedule: Q04DX002 (ip), vehicle: saline with Tween-80 100 % of control | dose: 6.25 mg/kg/injection, schedule: Q04DX002 (ip), vehicle: saline with Tween-80 106 % of control | dose: 25.0 mg/kg/injection, schedule: Q04DX002 (ip), vehicle: saline with Tween-80 96 % of control and 100 % of control | dose: 50.0 mg/kg/injection, schedule: Q04DX002 (ip), vehicle: saline with Tween-80 114 % of control

CC1C(=O)CCCC1=O
inactive: [1] 101 % of control | dose: 200.0 mg/kg/injection, schedule: Q01DX009 (ip), vehicle: Klucel (hydroxypropylcellulose) (HPC) 101 % of control | dose: 400.0 mg/kg/injection, schedule: Q01DX009 (ip), vehicle: Klucel (hydroxypropylcellulose) (HPC) 95 % of control

O=C(CCBr)c1ccc(Cl)cc1
inactive: dose: 6.25 mg/kg/injection, schedule: Q01DX009 (ip), vehicle: saline with Tween-80 93 % of control | [2] 91 % of control | [3] 93 % of control

CC(C)(C)NC(=O)CCC(CC(=O)NC(C)(C)C)S(=O)(=O)O (stereo not drawn)
inactive: [4] 97 % of control | [5] 97 % of control | [6] 98 % of control | [7] 90 % of control | [8] 95 % of control

O=C1C=CC(=O)N1C(=O)NC(I)NC(=O)N1C(=O)C=CC1=O
inactive: [9] 94 % of control | [10] 98 % of control | dose: 400.0 mg/kg/injection, schedule: Q01DX001 (ip), vehicle: carboxymethylcellulose (CMC) 100 % of control

O=[N+]([O-])/C(N=Nc1ccc(Br)cc1)=N\Nc1ccc(Br)cc1
inactive: dose: 75.0 mg/kg/injection, schedule: Q01DX001 (ip), vehicle: acetone 87 % of control | dose: 150.0 mg/kg/injection, schedule: Q01DX001 (ip), vehicle: acetone 89 % of control

CCC1(CC)c2ccccc2C(CC)(CC)[N+]1(C)C
inactive: [9] 102 % of control | [10] 98 % of control

O=C(O)C1CC2c3ccccc3C1c1ccccc12 (stereo not drawn)
inactive: dose: 25.0 mg/kg/injection, schedule: Q01DX009 (ip), vehicle: Klucel (hydroxypropylcellulose) (HPC) 90 % of control | dose: 50.0 mg/kg/injection, schedule: Q01DX009 (ip), vehicle: Klucel (hydroxypropylcellulose) (HPC) 97 % of control | [1] 104 % of control | dose: 100.0 mg/kg/injection, schedule: Q04DX003 (ip), vehicle: Klucel (hydroxypropylcellulose) (HPC) 90 % of control

Nc1nc(N)c(N=Nc2ccc([As](=O)(O)O)c(O)c2)c(=O)[nH]1
inactive: [11] 91 % of control | [12] 93 % of control | dose: 400.0 mg/kg/injection, schedule: Q01DX001 (ip), vehicle: saline 93 % of control

CCCCCCC(C)NCC(O)COc1cccc(C)c1 (stereo not drawn)
inactive: [2] 94 % of control | [3] 97 % of control

C[N+](C)(C)Cc1ccccc1C[N+](C)(C)C
inactive: dose: 50.0 mg/kg/injection, schedule: Q01DX001 (ip), vehicle: saline 113 % of control | [11] 101 % of control | [12] 97 % of control

CS(=O)CC(=O)c1ccc(C(=O)O)cc1 (stereo not drawn)
inactive: dose: 100.0 mg/kg/injection, schedule: Q04DX003 (ip), vehicle: other 107 % of control | dose: 200.0 mg/kg/injection, schedule: Q04DX003 (ip), vehicle: other 98 % of control | dose: 400.0 mg/kg/injection, schedule: Q04DX003 (ip), vehicle: other 101 % of control

CC(=O)OC1C(C[N+](=O)[O-])OC(n2cnc3c(NC(=O)c4ccccc4)ncnc32)C(OC(C)=O)C1OC(C)=O (stereo not drawn)
inactive: dose: 50.0 mg/kg/injection, schedule: Q04DX002 (ip), vehicle: saline 102 % of control | dose: 100.0 mg/kg/injection, schedule: Q04DX002 (ip), vehicle: saline 100 % of control | dose: 200.0 mg/kg/injection, schedule: Q04DX002 (ip), vehicle: saline 121 % of control

O=C1Oc2ccccc2C1=O
inactive: [4] 98 % of control | dose: 75.0 mg/kg/injection, schedule: Q01DX001 (ip), vehicle: other 101 % of control | [5] 102 % of control | [6] 109 % of control | dose: 150.0 mg/kg/injection, schedule: Q01DX001 (ip), vehicle: other 101 % of control | [7] 91 % of control | [8] 98 % of control

CC[N+](CC)(CC)CCCCCCCC[N+](CC)(CC)CC
inactive: dose: 0.78 mg/kg/injection, schedule: Q01DX009 (ip), vehicle: water 110 % of control | dose: 0.78 mg/kg/injection, schedule: Q04DX003 (ip), vehicle: saline 107 % of control | dose: 1.56 mg/kg/injection, schedule: Q01DX009 (ip), vehicle: water 111 % of control | dose: 1.56 mg/kg/injection, schedule: Q04DX003 (ip), vehicle: saline 104 % of control

CN(C)NC(=O)CC(NCc1ccccc1)C(=O)O (stereo not drawn)
inactive: dose: 100.0 mg/kg/injection, schedule: Q01DX009 (ip), vehicle: saline with Tween-80 94 % of control | dose: 200.0 mg/kg/injection, schedule: Q01DX009 (ip), vehicle: saline with Tween-80 95 % of control | dose: 400.0 mg/kg/injection, schedule: Q01DX009 (ip), vehicle: saline with Tween-80 95 % of control

COC(=O)c1nnn(CN(CN(CN(Cn2nnc(C(=O)OC)c2C(=O)OC)[N+](=O)[O-])[N+](=O)[O-])[N+](=O)[O-])c1C(=O)OC
inactive: dose: 75.0 mg/kg/injection, schedule: Q01DX001 (ip), vehicle: Klucel (hydroxypropylcellulose) (HPC) 108 % of control | dose: 150.0 mg/kg/injection, schedule: Q01DX001 (ip), vehicle: Klucel (hydroxypropylcellulose) (HPC) 100 % of control | dose: 300.0 mg/kg/injection, schedule: Q01DX001 (ip), vehicle: Klucel (hydroxypropylcellulose) (HPC) 110 % of control

O=P1(c2ccccc2)C=C(Cl)CC1 (stereo not drawn)
inactive: dose: 75.0 mg/kg/injection, schedule: Q01DX001 (ip), vehicle: saline 96 % of control | dose: 150.0 mg/kg/injection, schedule: Q01DX001 (ip), vehicle: saline 107 % of control
